Measurements taken from patent publication US5795890A, “Sulfonamide derivatives” (ONO Pharmaceutical Co., Ltd., priority 1995, dated 1998).
Where a name gives a salt, the structure may show the parent alone.

Columns and labels:
[1] = molecular target: T1, human polymorphonuclear elastase (HSE) (Homo sapiens, UniProt P08246); test: Inhibitory effects on human polymorphonuclear elastase; type: biochemical; details: substrate Meo-Suc-Ala-Ala-Pro-Val-pNA; HEPES pH 8.0; preincubation 37° C. 20 min, incubation 5 min
T1 sequence (P08246 30-267): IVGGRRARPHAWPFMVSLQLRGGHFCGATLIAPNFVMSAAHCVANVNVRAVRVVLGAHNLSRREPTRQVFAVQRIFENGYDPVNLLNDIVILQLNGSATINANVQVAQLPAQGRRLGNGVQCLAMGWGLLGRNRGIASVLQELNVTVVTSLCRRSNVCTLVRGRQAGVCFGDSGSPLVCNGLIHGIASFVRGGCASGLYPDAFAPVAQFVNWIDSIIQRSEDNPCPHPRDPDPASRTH
Method: (1) Inhibitory effects on human polymorphonuclear elastase
A mixture with 0.5 ml of 0.2 mM HEPES buffer (pH 8.0), 0.2 ml of 2.5M NaCl, 0.1 ml of 1% polyethyleneglycol 6000, 0.13 ml of distilled water, test compound dissolved in 0.01 ml of dimethylsulfoxide (DMSO) and 0.05 ml of 0.8 Unit/ml human polymorphonuclearelastase (HSE) was preincubated at 37° C. for 20 min. 5 mM of Meo-Suc-Ala-Ala-Pro-Val-pNA (DMSO solution, 0.01 ml) was then added to the above mixture and was incubated at 37° C. for 5 min. The reaction was terminated by 0.1 ml of 50% acetic acid and the p-nitroanilide (pNA) released was measured spectrophotometrically at […]. Percent inhibition of a compound was calculated by the following equation.
Inhibition (%)=1-{derlat OD(test-blank)/deltaOD(control-blank)}×100

[2] = tested on: human polymorphonuclear elastase-induced lung hemorrhage; test: Inhibitory effects on human polymorphonuclear elastase-induced lung hemorrhage in hamster; type: in vivo, Syrian hamster; details: oral, 60 min before intratracheal HSE 10 U/0.1 ml, blood in BALF; for inhibition at 500 mg/kg (%): 5 Syrian hamsters per group; for ED50: Homo sapiens, Syrian hamsters
Method: (2) Inhibitory effects on human polymorphonuclear elastase-induced lung hemorrhage in hamster
A test compound suspended in 0.5% Carboxymethylcellulose or 80% Polyethyleneglycol, 400 or 2% Tween 80 was administered orally to a group of 5 Syrian hamsters. At 60 min after the administration, 10 U/0.1 ml of HSE was injected intratracheally via surgically exposed trachea under pentobarbital anesthesia (60 mg/kg, i.p.) to induce lung injury. At 60 min after the injection, hamsters were bled to sacrifice and subjected to bronchoalveolar lavage with 2.5 ml of saline and recovered lavage solution (BALF). The recovered BALF (0.5 ml) was diluted by 4 times with 2% aqueous solution sodium carbonate and sonicated for 10 sec. The lavage fluid was further diluted by 2.5 times with 2% aqueous solution sodium carbonate and the amount of blood in BALF was calculated from absorbance at 414 nm using standard curve.

Structure (SMILES)	IC50 [1]	inhibition at 500 mg/kg (%) [2]	ED50 [2]
CCC(C(=O)Oc1ccc(S(=O)(=O)N2CSC[C@H]2C(=O)O)cc1)c1ccc(N2CCCC2)cc1 (stereo partly drawn) [2(77), 4-(4S-carboxyperhydrothiazol-3-ylsulfonyl)phenyl 2RS-(4-(pyrrolidin-1-yl)phenyl)butanoic acid ester.hydrochloride]	18 nM		
CCC(C(=O)Oc1ccc(S(=O)(=O)Nc2ccccc2C(=O)NCC(=O)O)cc1)c1ccc(N(C)C)cc1 (racemic) [2(197), 4-(N-2-(N'-carboxymethylcarbamoyl)phenylsulfamoyl)phenyl 2RS-(4-(N,N-dimethylamino)phenyl)butanoic acid ester.hydrochloride]	10 nM		
CCC(C(=O)Oc1ccc(S(=O)(=O)N2CCC[C@H]2C(=O)O)cc1)c1ccc(N2CCCC2)cc1 (stereo partly drawn) [Example 2(1), 4-(2S-carboxypyrrolidin-1-ylsulfonyl)phenyl 2RS-(4-(pyrrolidin-1-yl)phenyl)butanoic acid ester.hydrochloride]	12 nM		
CCC(C(=O)Oc1ccc(S(=O)(=O)Nc2ccccc2C(=O)NCC(=O)O)cc1)c1ccc2c(c1)OCO2 (racemic) [2(120), 4-(N-2-(N'-carboxymethylcarbamoyl)phenylsulfamoyl)phenyl 2RS-(1,3-benzodioxol-5-yl)butanoic acid ester]	23 nM		
CCC(C(=O)Oc1ccc(S(=O)(=O)NC2CN3CCC2CC3)cc1C)c1ccc(N2CCCC2)cc1 (racemic) [Example 1(90), 4-(N-(quinuclidin-3RS-yl)sulfamoyl)-2-methylphenyl 2RS-(4-(pyrrolidin-1-yl)phenyl)butanoic acid ester]		65%	
CCC(C(=O)Oc1ccc(S(=O)(=O)N2CCC[C@H]2C(=O)O)cc1C)c1ccc(N2CCCC2)cc1 (stereo partly drawn) [Example 2, 4-(2S-carboxypyrrolidin-1-ylsulfonyl)-2-methylphenyl 2RS-(4-(pyrrolidin-1-yl)phenyl)butanoic acid ester.hydrochloride]	55 nM	81%	
CCC(C(=O)Oc1ccc(S(=O)(=O)NC23CC4CC(C2)CC(C(=O)O)(C4)C3)cc1)c1ccc(N2CCCC2)cc1 (racemic) [2(111), 4-(N-3-carboxyadamantan-1-ylsulfamoyl)phenyl 2RS-(4-(pyrrolidin-1-yl)phenyl)butanoic acid ester]	9.7 nM		
CCC(C(=O)Oc1ccc(S(=O)(=O)NCCc2ccccn2)cc1)c1ccc(N2CCCC2)cc1 (racemic) [Example 1(78), 4-(N-2-(pyridin-2-yl)ethylsulfamoyl)phenyl 2RS-(4-(pyrrolidin-1-yl)phenyl)butanoic acid ester.2hydrochloride]	8 nM		
CCC(C(=O)Oc1ccc(S(=O)(=O)NCC(O)CO)cc1C)c1ccc(C)cc1 (racemic) [Example 1(68), 4-(N-2RS,3-dihydroxypropylsulfamoyl)-2-methylphenyl 2RS-(4-methylphenyl)butanoic acid ester]		51%	
CCC(C(=O)Oc1ccc(S(=O)(=O)NCC(N)=O)cc1)c1ccc(N2CCCC2)cc1 (racemic) [Example 1(56), 4-(N-(carbamoylmethyl)sulfamoyl)phenyl 2RS-(4-(pyrrolidin-1-yl)phenyl)butanoic acid ester]	14 nM		
CCC(C(=O)Oc1ccc(S(=O)(=O)Nc2ccccc2C(=O)NCC(=O)O)cc1)c1ccc(OC)c(OC)c1 (racemic) [2(157), 4-(N-2-(N'-carboxymethylcarbamoyl)phenylsulfamoyl)phenyl 2RS-(3,4-dimethoxyphenyl)butanoic acid ester]	8 nM		
CCC(C(=O)Oc1ccc(S(=O)(=O)Nc2ccccc2C(=O)NCC(=O)O)cc1)c1ccc(C)cc1 (racemic) [2(173), 4-(N-2-(N'-carboxymethylcarbamoyl)phenylsulfamoyl)phenyl 2RS-(4-methylphenyl)butanoic acid ester]	14 nM		
CC[C@H](C(=O)Oc1ccc(S(=O)(=O)NCCN2CCOCC2)cc1C)c1ccc(N2CCCC2)cc1 [Example 1(139), 4-(2-(morpholin-4-yl)ethylaminosulfonyl)-2-methylphenyl 2S-(4-(pyrrolidin-1-yl)phenyl)butanoic acid ester.2hydrochloride]	24 nM		192 mg/kg
CCC(C(=O)Oc1ccc(S(=O)(=O)n2c(C(=O)O)cc3ccccc32)cc1C)c1ccc(C)cc1 (racemic) [2(69), 4-(2-carboxyindol-1-ylsulfonyl)-2-methylphenyl 2RS-(4-methylphenyl)butanoicacid ester]	11 nM	83%	
CCOC(=O)C(CN1CCOCC1)NS(=O)(=O)c1ccc(OC(=O)C(CC)c2ccc(N3CCCC3)cc2)cc1 (racemic) [Example 1(40), 4-(N-1RS-(ethoxycarbonyl)-2-(morpholin-4-yl)ethylsulfamoyl)phenyl 2RS-(4-(pyrrolidin-1-yl)phenyl)butanoic acid ester]	19 nM		
O=C(O)CNC(=O)c1ccccc1NS(=O)(=O)c1ccc(OC(=O)C2(c3ccc([N+](=O)[O-])cc3)CCC2)cc1 [2(179), 4-(N-2-(N'-carboxymethylcarbamoyl)phenylsulfamoyl)phenyl 1-(4-nitrophenyl)cyclobutanecarboxylic acid ester]	49 nM		
CC[C@H](C(=O)Oc1ccc(S(=O)(=O)N2CCNCC2)cc1C)c1ccc(N2CCCC2)cc1 [Example 2(276), 4-(piperazin-4-ylsulfonyl)-2-methylphenyl 2S-(4-(pyrrolidin-1-yl)phenyl)butanoic acid ester.2hydrochloride]	9.3 nM		73 mg/kg
CCc1cc(S(=O)(=O)N2CCNCC2)ccc1OC(=O)[C@@H](CC)c1ccc(N2CCCC2)cc1 [Example 2(274), 4-(piperazin-4-ylsulfonyl)-2-ethylphenyl 2S-(4-(pyrrolidin-1-yl)phenyl)butanoic acid ester.2hydrochloride]	12 nM		132 mg/kg
CCC(C(=O)Oc1ccc(S(=O)(=O)N2CCOCC2)cc1)c1ccc(N2CCCC2)cc1 (racemic) [Example 1(16), 4-(morpholin-4-ylsulfonyl)phenyl 2RS-(4-(pyrrolidin-1-yl)phenyl)butanoic acid ester]	17 nM		
CCC(C(=O)Oc1ccc(S(=O)(=O)n2c(C(=O)O)cc3cc(OC)c(OC)cc32)cc1C)c1ccc(N2CCCC2)cc1 (racemic) [2(42), 4-(2-carboxy-5,6-dimethoxyindol-1-ylsulfonyl)-2-methylphenyl 2RS-(4-(pyrrolidin-1-yl)phenyl)butanoic acid ester]	13 nM	67%	
CCC(C(=O)Oc1ccc(S(=O)(=O)N2c3ccccc3CC2C(=O)O)cc1)c1ccccc1OC (racemic) [2(62), 4-(2RS-carboxyindolin-1-ylsulfonyl)phenyl 2RS-(2-methoxyphenyl)butanoic acid ester]	6.8 nM		
CC[C@H](C(=O)Oc1ccc(S(=O)(=O)N2CCc3cc([N+](=O)[O-])ccc32)cc1C)c1ccc(N2CCCC2)cc1 [Example 1(130), 4-(5-nitroindolin-1-ylsulfonyl)-2-methylphenyl 2S-(4-(pyrrolidin-1-yl)phenyl)butanoic acid ester]	22 nM		
